# From patent US6528494B2 (priority 1996, dated 2003)
# Structures can show the parent of a compound that is named as a salt.
# What was measured:
# Type in all cases: cell-based
# adenosine 1 receptor = biological target: T1, adenosine 1 receptor (Homo sapiens, UniProt P30542); assay: Agonist activity against adenosine 1 receptor (CHO cells, forskolin-enhanced cAMP/SPAP reporter); conditions: CHO cells transfected with human receptor; forskolin-enhanced cAMP via SPAP; mean of all the versions tested
# T1 sequence (P30542 1-326): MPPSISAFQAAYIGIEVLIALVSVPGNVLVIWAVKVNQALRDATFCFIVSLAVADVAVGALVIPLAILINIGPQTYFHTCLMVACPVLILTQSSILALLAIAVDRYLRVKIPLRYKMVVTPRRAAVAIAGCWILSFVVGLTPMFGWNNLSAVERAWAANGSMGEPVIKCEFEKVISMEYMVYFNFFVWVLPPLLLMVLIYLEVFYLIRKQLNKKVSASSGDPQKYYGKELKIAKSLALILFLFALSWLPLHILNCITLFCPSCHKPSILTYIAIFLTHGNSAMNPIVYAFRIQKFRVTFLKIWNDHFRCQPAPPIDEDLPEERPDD
# Procedure: (§1) (1) Agonist activity against adenosine 2a, adenosine 1 and adenosine 3 receptor subtypes.
# (§2) The effect of test compounds was determined by their effects on basal levels of cAMP (A2a) or on forskolin-enhanced cAMP (A1 and A3) as reflected by changes in levels of SPAP.
# adenosine 2a receptor = adenosine 2a receptor (Homo sapiens, UniProt P29274); assay: Agonist activity against adenosine 2a receptor (CHO cells, cAMP/SPAP reporter); conditions: CHO cells transfected with human receptor; basal cAMP via SPAP; mean of all the versions tested
# adenosine 2a receptor, sequence (P29274 whole entry): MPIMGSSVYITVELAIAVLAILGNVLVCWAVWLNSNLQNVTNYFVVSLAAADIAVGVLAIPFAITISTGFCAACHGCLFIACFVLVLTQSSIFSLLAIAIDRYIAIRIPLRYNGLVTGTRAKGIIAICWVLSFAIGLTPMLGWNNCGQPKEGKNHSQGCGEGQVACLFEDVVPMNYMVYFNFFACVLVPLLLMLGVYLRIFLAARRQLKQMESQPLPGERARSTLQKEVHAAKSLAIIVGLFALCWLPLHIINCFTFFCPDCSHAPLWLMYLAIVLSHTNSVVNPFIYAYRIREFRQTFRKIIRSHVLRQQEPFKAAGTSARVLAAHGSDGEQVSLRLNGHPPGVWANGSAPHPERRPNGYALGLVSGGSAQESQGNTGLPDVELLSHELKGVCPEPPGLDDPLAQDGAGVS
# Procedure: as §1, §2
# adenosine 3 receptor = biological target: T2, adenosine 3 receptor (Homo sapiens, UniProt P0DMS8); assay: Agonist activity against adenosine 3 receptor (CHO cells, forskolin-enhanced cAMP/SPAP reporter); conditions: CHO cells transfected with human receptor; forskolin-enhanced cAMP via SPAP; mean of all the versions tested
# T2 sequence (P0DMS8 1-318): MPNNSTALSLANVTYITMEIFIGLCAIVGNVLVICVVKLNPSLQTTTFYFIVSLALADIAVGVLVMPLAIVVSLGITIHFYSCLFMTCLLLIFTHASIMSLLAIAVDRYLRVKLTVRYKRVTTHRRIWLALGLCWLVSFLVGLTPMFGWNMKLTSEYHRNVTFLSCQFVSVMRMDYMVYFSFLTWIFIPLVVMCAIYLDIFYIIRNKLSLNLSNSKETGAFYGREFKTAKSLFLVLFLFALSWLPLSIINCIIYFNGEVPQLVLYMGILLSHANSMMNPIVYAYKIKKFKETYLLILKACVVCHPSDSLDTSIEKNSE
# Procedure: as §1, §2
SMILES,A1 EC50 as a ratio of that of NECA (adenosine 1 receptor),A2a EC50 as a ratio of that of NECA (adenosine 2a receptor),A3 EC50 as a ratio of that of NECA (adenosine 3 receptor)
"CCC(CC)Nc1nc(NCCN2CCOCC2)nc2c1ncn2C1OC(c2nnn(C)n2)C(O)C1O.O=CO.O=CO [Example 91, (2R,3R,4S,5R)-2-[6-(1-Ethyl-propylamino)-2-(2-morpholin-4-yl-ethylamino)-purin-9-yl]-5-(2-methyl-2H-tetrazol-5-yl)-tetrahydro-furan-3,4-diol Diformate]",>7461.00,1.75,>270
"Cn1nnc(C2OC(n3cnc4c(NCC(c5ccccc5)c5ccccc5)nc(NC(CO)Cc5ccccc5)nc43)C(O)C2O)n1 [Example 95, (2R,3R,4S,5R)-2-[6-(2,2-Diphenyl-ethylamino)-2-(1S-hydroxymethyl-2-phenyl-ethylamino)-purin-9-yl]-5-(2-methyl-2H-tetrazol-5-yl)-tetrahydro-furan-3,4-diol Formate]",4687.00,2.10,>153
"Cn1nnc([C@H]2O[C@@H](n3cnc4c(NCC(c5ccccc5)c5ccccc5)nc(N[C@@H]5CCC[C@H]5O)nc43)[C@H](O)[C@@H]2O)n1.O=CO [Example 96, (2R,3R,4S,5R)-2-[6-(2,2-Diphenyl-ethylamino)-2-(2R-hydroxy-(R)-cyclopentylamino)-purin-9-yl]-5-(2-methyl-2H-tetrazol-5-yl)-tetrahydro-furan-3,4-diol Formate]",5177.00,2.14,>153
Cn1nnc(C2OC(n3cnc4c(NCC(c5ccccc5)c5ccccc5)nc(NCCc5ccccn5)nc43)C(O)C2O)n1.O=CO.O=CO (stereo not drawn) [Example 97],1413.00,2.34,>240
"CC(C)C(CO)Nc1nc(NCC(c2ccccc2)c2ccccc2)c2ncn(C3OC(c4nnn(C)n4)C(O)C3O)c2n1 [Example 99, (2R,3R,4S,5R)-2-[6-(2,2-Diphenyl-ethylamino)-2-(1S-hydroxymethyl-2-methyl-propylamino)-purin-9-yl]-5-(2-methyl-2H-tetrazol-5-yl)-tetrahydro-furan-3,4-diol Formate]",87.00,4.82,>130
"CCn1nnc(C2OC(n3cnc4c(NCc5cccc(I)c5)nc(NC5CCC(N)CC5)nc43)C(O)C2O)n1.O=CO.O=CO [Example 100, (2R,3R,4S,5R)-2-[2-(trans-4-Amino-cyclohexylamino)-6-(3-iodo-benzylamino)-purin-9-yl]-5-(2-ethyl-2H-tetrazol-5-yl)-tetrahydro-furan-3,4-diol Diformate]",292.70,5.71,>127
"CCn1nnc(C2OC(n3cnc4c(NCCc5ccccc5)nc(NCCN5CCCCC5)nc43)C(O)C2O)n1.O=CO.O=CO [Example 102, (2R,3S,4R,5R)-2-(2-Ethyl-2H-tetrazol-5-yl)-5-[6-phenethylamino-2-(2-piperidin-1-yl-ethylamino)-purin-9-yl]-tetrahydro-furan-3,4-diol Diformate]",321.00,6.36,>195
CCn1nnc(C2OC(n3cnc4c(NC(CO)Cc5ccccc5)nc(NCCN5CCCCC5)nc43)C(O)C2O)n1 (stereo not drawn) [Example 103],48.50,3.91,>184
"Cn1nnc(C2OC(n3cnc4c(NCc5cccc(I)c5)nc(NCCN5CCCCC5)nc43)C(O)C2O)n1 [Example 106, (2R,3R,4S,5R)-2-[6-(3-lodo-benzylamino)-2-(2-piperidin-1-yl-ethylamino)-purin-9-yl]-5-(2-methyl-2H-tetrazol-5-yl)-tetrahydro-furan-3,4-diol bis(Formate)]",100.30,1.12,>201
"Cn1nnc(C2OC(n3cnc4c(NC(CO)Cc5ccccc5)nc(NCCN5CCCCC5)nc43)C(O)C2O)n1 [Example 107, (2R,3R,4S,5R)-2-[6-(1S-Hydroxymethyl-2-phenyl-ethylamino)-2-(2-piperidin-1-yl-ethylamino)-purin-9-yl]-5-(2-methyl-2H-tetrazol-5-yl)-tetrahydro-furan-3,4-diol bis(Formate)]",89.10,1.27,>233

# More lines, now with the values ahead:
A1 EC50 as a ratio of that of NECA (adenosine 1 receptor),A2a EC50 as a ratio of that of NECA (adenosine 2a receptor),A3 EC50 as a ratio of that of NECA (adenosine 3 receptor),SMILES
922.00,5.07,>153,"Cn1nnc(C2OC(n3cnc4c(NCC(c5ccccc5)c5ccccc5)nc(NC5CCC(N)CC5)nc43)C(O)C2O)n1.O=CO.O=CO [Example 93, (2R,3R,4S,5R)-2-[2-(trans-4-Amino-cyclohexylamino)-6-(2,2-diphenyl-ethylamino)-purin-9-yl]-5-(2-methyl-2H-tetrazol-5-yl)-tetrahydro-furan-3,4-diol Diformate]"
385.90,2.39,>411,"Cn1nnc(C2OC(n3cnc4c(NCC(c5ccccc5)c5ccccc5)nc(NC5CCNC5)nc43)C(O)C2O)n1 [Example 94, (2R,3R,4S,5R)-2-[6-(2,2-Diphenyl-ethylamino)-2-(pyrrolidin-3R-ylamino)-purin-9-yl]-5-(2-methyl-2H-tetrazol-5-yl)-tetrahydro-furan-3,4-diol Diformate]"
126.50,2.28,>160,Cn1nnc(C2OC(n3cnc4c(NCC(c5ccccc5)c5ccccc5)nc(NCCN5CCOCC5)nc43)C(O)C2O)n1.O=CO.O=CO (stereo not drawn) [Example 98]
39.00,1.51,>195,"CCn1nnc(C2OC(n3cnc4c(NC5CCCC5)nc(NC5CCC(N)CC5)nc43)C(O)C2O)n1.O=CO.O=CO [Example 101, (2R,3R,4S,5R)-2-[2-(trans-4-Amino-cyclohexylamino)-6-cyclopentylamino-purin-9-yl]-5-(2-ethyl-2H-tetrazol-5-yl)-tetrahydro-furan-3,4-diol bis(Formate)]"
113.40,4.04,>235,"CCn1nnc(C2OC(n3cnc4c(NC5CCCC5)nc(NCCN5CCCCC5)nc43)C(O)C2O)n1.O=CO.O=CO [Example 104, (2R,3R,4S,5R)-2-[6-Cyclopentylamino-2-(2-piperidin-1-yl-ethylamino)-purin-9-yl]-5-(2-ethyl-2H-tetrazol-5-yl)-tetrahydro-furan-3,4-diol bis(Formate)]"
>2999.00,1.07,>233,"Cn1nnc(C2OC(n3cnc4c(NCc5cccc(I)c5)nc(NC5CCC(N)CC5)nc43)C(O)C2O)n1.O=CO.O=CO [Example 105, (2R,3R,4S,5R)-2-[2-(trans-4-Amino-cyclohexylamino)-6-(3-iodo-benzylamino)-purin-9-yl]-5-(2-methyl-2H-tetrazol-5-yl)-tetrahydro-furan-3,4-diol bis(Formate)]"
